Marks after values point to notes of the source that are not given here.
Tests used:
[1] = test system: scopolamine induced memory deficit in male Wistar rats; assay: Object recognition task (ORT), scopolamine induced memory deficit; format: in vivo; conditions: scopolamine 0.1 mg/kg ip + vehicle
Description: The objective of this study is to evaluate the efficacious dose range of roflumilast with regard to cognitive improvement effects by using scopolamine induced memory deficit on object memory performance in male Wistar rats. Memory acquisition processes are investigated using the object recognition test (ORT).
Maintenance of Animals: Sixteen 3-4 month old male Wistar rats (Charles River, Sulzfeld, Germany) were used for the study. All animals were housed individually in standard green line Tecniplast IVC cages on stardust bedding. The animals were housed on a reversed 12/12 h light/dark cycle (lights on from 07:00 pm to 07:00 am) and had free access to food and water. The rats were housed and tested in the same room. A radio, playing softly, provided background noise in the room. All testing was performed between 09:00 am and 06:00 pm.
Preparation of Compounds: Drugs were prepared daily, except as indicated otherwise. Roflumilast (Takeda, Konstanz, Germany, MW 403.21) was dissolved in 98% methylcellulose solution (0.5% methylcellulose) and 2% Tween 80. Roflumilast in doses of 0 (vehicle), 0.0001, 0.0003, 0.001, 0.003, 0.01 and 0.03 mg/kg was administered intraperitoneally (ip, injection volume 1 ml/kg). Scopolamine (in form of scopolamine hydrobromide) was dissolved in saline (0.9% NaCl). Scopolamine hydrobromide was administered intraperitoneally at a dose of 0.1 mg/kg (ip, injection volume 1 ml/kg). Scopolamine and roflumilast were administered 30 min before T1.
Object Recognition Task in Rats: The ORT was performed as described elsewhere (Ennaceur and Delaceur, 1988, Behav Brain Res, Vol 31, pp 47-59; Akkerman et al; 2012, Behav Brain Res, Vol 232, pp 335-347). The apparatus consisted of a circular arena, 83 cm in diameter. The back half of the 40 cm high wall was made of grey PVC and the front was made of transparent PVC. Fluorescent red tubes and a light bulb provided a constant illumination of about 20 lux on the floor of the apparatus. The light intensity was equal in the different parts of the apparatus.
Two objects were placed in symmetrical positions at the mid-line between the gray and transparent halves of the arena, about ten centimeters away from wall. Four different sets of objects were available: 1) a standard 1 L brown transparent glass bottle (diameter 10 cm, height 22 cm) filled with water, 2) a metal cube (10.0×5.0×7.5 cm) with two holes (diameter 1.9 cm), 3) a cone consisting of a gray PVC base (maximal diameter 18 cm) with a collar on top made of brass (total height 16 cm), and 4) an aluminium cube with a tapering top (13.0×8.0×8.0 cm). Objects were presented to the animals in a balanced manner to avoid object or place biases. Rats were unable to displace the objects.
A test session comprised two trials, each with durations of 3 min. During the learning trial (T1) the apparatus contains two identical objects (object al and a2). Rats were always introduced into the apparatus with their nose towards the transparent wall segment (i.e. facing outwards to the front of the arena). Subsequently, rats were put back in its home cage for a 1 h interval. After the retention interval, rats were put back into the arena for the […] (T2). In T2, the two objects from T1 were replaced by one identical copy (a3) and a different novel object (b). The times spent in exploring each object during T1 and T2 were recorded manually on a personal computer.
Exploration was defined in the following manner: directing the nose to the object at a distance of no more than 2 cm and/or touching the object with the nose. Sitting on the object was not considered as exploratory behavior. In order to avoid the presence of olfactory cues, the objects were thoroughly cleaned with a 70% ethanol solution before each trial.
Prior to compound testing, the animals were handled for 5 min on 2 consecutive days and allowed to explore the ORT arena, also for 5 min. […]

[2] = test system: spatial memory in male C57BL/6NCrl mice; assay: Object Location Task (OLT), 24-hour retention interval; format: in vivo; conditions: for d2 index, discrimination index between the new and familiar objects for T2: given 3 hours after T1, T2 after 24 h, mean (SEM)
Description: The objective of this study was to evaluate the cognitive improvement effects of Roflumilast on spatial memory employing Object Location Task (OLT) in male C57BL/6NCrl mice. Roflumilast was compared with data of the already established PDE4 inhibitor Rolipram in the same model.
Maintenance of Animals Twenty-four 7 month-old male C57BL/6NCrl mice (Charles River, L'Arbresle, France) were used (average body weights: 27.6 g). The animals were kept under a 12/12-hour light/dark cycle (lights on from 07.00 pm to 07.00 am) with free access to food and water. All testing was done between 09.00 am and maximally 06.00 pm.
Preparation of Compounds for Administration Both rolipram (Sigma-Aldrich St. Louis, USA; MW 275.34) and roflumilast (Biocrea, Radebeul, Germany; MW 403.21) were dissolved in dimethylsulfoxide (DMSO) and kept at 4 ° C.; this stock solution was used for further dilutions in 0.5% methylcellulose. Each of rolipram and roflumilast is used in form of its free base. All injected solutions consisted of 0.5% methylcellulose with a fixed DMSO percentages (1.2%) (vehicle).
Object Location Task Studies in Rodents For the Object Location Task (OLT), doses of 0.01 mg/kg, 0.03 mg/kg and 0.1 mg/kg of Rolipram or Roflumilast or vehicle were administered subcutaneously (s.c.). Based on previous findings, PDE4 inhibitor single administration was performed 3 hours after the first trial as this has an optimum effect on object memory performance. The injection volume was 5 μl/g.
The OLT apparatus consisted of a circular arena, 40 cm in diameter. Half of the 40 cm transparent polyvinyl chloride wall was covered from the outside with white paper. Two objects were placed symmetrically about 10 cm away from the wall on the separation line, between the transparent and covered side of the arena. Four different sets of objects were available: (1) a cone made of brass (maximal diameter 6 cm and total height 3.8 cm), (2) a transparent glass bottle (diameter 2.7 cm, height 8.5 cm) filled with sand and water, (3) a massive metal cube (2.5 cm×5 cm×7.5 cm) with two holes (diameter 1.5 cm), and (4) a massive aluminum cube with a tapering top (4.5 cm×4.5 cm×8.5 cm).
A testing session comprised two trials of 4 minutes. Before each trial, mice were placed in an empty Makrolon cage (incubation cage) for the same amount of time as the trial (4 min). During the first trial (T1), two identical objects were placed symmetrically about 10 cm away from the wall on the separation line between the transparent and covered side of the arena. After the first exploration period of 4 min, the mouse was put back in its home cage. Mice then received treatment at 3 hours post T1. Subsequently, after a predetermined delay interval (24h), the mouse was placed in the apparatus for the second trial of 4 min (T2). Two identical objects as in T1 were used; one object was placed in the previously used position, whereas the other was placed in a novel position. The novel position of the object could either be a fixed distance towards the front or a fixed distance towards the back of the arena for both objects. The times spent exploring each object during T1 and T2 were recorded manually using a personal computer. All objects and locations were used in a balanced manner to exclude possible object and/or location preferences. To avoid olfactory cues, the objects were thoroughly cleaned with 70% ethanol after each trial. The testing order of conditions was determined randomly.
Statistical Data Analysis The measurements reflected the time spent by the mice in exploring each object during T1 and T2. The time spent in exploring the two identical samples in T1 were represented by ‘a1’ and ‘a2’, respectively. The time spent in exploring the sample and the new object in T2 were represented by ‘a’ and ‘b’, respectively. From these exploration times the following variables were calculated: e1, e2, and d2 (Table 1). The d2 index is a relative measure of discrimination corrected for exploratory activity. […]

[3] = test system: xylazine/ketamine induced α2-adrenergic receptor-mediated anesthesia; assay: xylazine/ketamine induced α2-adrenergic receptor-mediated anesthesia test (emetic potential); format: in vivo; conditions: in vivo, 0.3 mg/kg
Description: Since emesis is a typical side-effect of phosphodiesterase 4 inhibitors the emetic potential of roflumilast and rolipram was investigated in parallel using the xylazine/ketamine induced α2-adrenergic receptor-mediated anesthesia test. The results confirmed that the two phosphodiesterase 4 inhibitors have different effects on emesis.

[4] = Plasma concentration levels of roflumilast and roflumilast-N-oxide in humans; format: in vivo, human
Description: An interim analysis has been performed based on the data of 9 subjects of the Impaired Elderly group and 4 subjects of the Healthy Elderly group. For this purpose, cognitive battery test scores (VLT, SMT, Stroop task and BL-VAS) and concentrations of roflumilast and roflumilast-N-oxide in plasma have been analysed and summarized by dose over each scheduled sampling time using descriptive statistics.

phosphodiesterase 4 = conditions: after administration of roflumilast; stated as believed; cited from earlier work

CN1[C@@H]2C[C@@H](OC(=O)[C@H](CO)c3ccccc3)C[C@H]1[C@@H]1O[C@@H]12 [scopolamine]
d2 value compared to the vehicle condition (post-hoc Bonferroni t-test) [1]: significantly lower | d2 (discrimination index) ([1]; 1 h retention, mean (SEM)): 0.01 (0.08)

COc1ccc(C2CNC(=O)C2)cc1OC1CCCC1 (stereo not drawn) [rolipram]
d2 index, discrimination index between the new and familiar objects for T2 ([2]; 0.01 mg/kg s.c.): 0.08 (0.05) | d2 index compared with the vehicle condition (post-hoc Bonferroni t-test) ([2]; 0.03 mg/kg s.c.): differed significantly from the vehicle condition | d2 index, discrimination index between the new and familiar objects for T2 ([2]; 0.03 mg/kg s.c.): 0.13 (0.05) # | d2 index compared with zero (one-sample t-test) ([2]; 0.03 mg/kg s.c., after twenty-four hours): significantly differed from zero | d2 index, discrimination index between the new and familiar objects for T2 ([2]; 0.1 mg/kg s.c.): 0.07 (0.05) | effect on spatial memory measured by the object location task test ([2]; single subcutaneous administration of 0.03 mg/kg): effective | emetic potential [3]: strong emetic potential

O=C(Nc1c(Cl)c[n+]([O-])cc1Cl)c1ccc(OC(F)F)c(OCC2CC2)c1 [roflumilast-N-oxide, 3-cyclopropyl-methoxy-4-difluoromethoxy-N-(3,5-dichloro-1-oxypyrid-4-yl)benzamide]
exposure (concentrations in plasma) ([4]; elderly study, interim analysis, 100, 250, 1000 mcg): consistent with those previously reported | steady state plasma concentration levels in once a day repeated dosing compared to once a day single dosing ([4]; humans, once a day (24 h) regimen): about two-fold | share of overall phosphodiesterase 4 inhibition in humans (phosphodiesterase 4): more than 90%

— patent US10357486B2, “Treatment of cognitive impairment with PDE4 inhibitor” (Universiteit Maastricht, priority 2013, dated 2019)
